Assay results reported in ChEMBL document CHEMBL4616702 (ACS Med Chem Lett, 2020).

Experiments:
[1] = Half life in human liver microsomes in presence of NADPH by LC/MS/MS method; format: ADME, Microsome
[2] = Cmax in Balb/c mouse at 10 mg/kg, po; format: ADME, organism-based; design: dose 10 mg/kg, route oral; settings: in vivo
[3] = Half life in mouse liver microsomes in presence of NADPH by LC/MS/MS method; format: ADME, Microsome; settings: for half-life: liver microsomes
[4] = AUC (0 to 24 hrs) in Balb/c mouse at 10 mg/kg, po; format: ADME, organism-based; design: dose 10 mg/kg, time < 24 hr, route oral; settings: in vivo
[5] = Half life in rat liver microsomes in presence of NADPH by LC/MS/MS metho; format: ADME, Microsome; settings: for half-life: liver microsomes; for t1/2: microsomes
[6] = Drug concentration in Balb/c mouse at 10 mg/kg, po measured upto 24 hrs; format: ADME, organism-based; settings: in vivo, read-out: Drug uptake

Row | Compound | half-life [1] [h] | Cmax [2] [µM] | half-life [3] [h] | AUC(0-t) at 24 h [4] [µM·h] | half-life [5] [h] | concentration at 24 h [6] [µM] | t1/2 ([3]; microsomes) [h] | t1/2 [5] [h]
1 | C[C@H]1C[C@H](C(=O)N2CC[C@@]3(S(=O)(=O)c4cccc(F)c4)c4ccc(C(F)(C(F)(F)F)C(F)(F)F)cc4CC[C@@H]23)CC[C@H]1C(=O)O | > 2 | 12 | > 2 | 72 | > 2 | 0.78 |  | 
2 | C[C@@H]1C[C@H](C(=O)O)CC[C@H]1C(=O)N1CC[C@@]2(S(=O)(=O)c3ccc(F)cc3)c3ccc(C(F)(C(F)(F)F)C(F)(F)F)cc3CC[C@@H]12 | > 2 |  | > 2 |  | > 2 |  |  | 
3 | C[C@H]1C[C@H](C(=O)O)CC[C@H]1C(=O)N1CC[C@@]2(S(=O)(=O)c3cccc(F)c3)c3ccc(C(F)(C(F)(F)F)C(F)(F)F)cc3CC[C@@H]12 | > 2 |  | > 2 |  | 1.78 |  |  | 
4 | O=C(N1CC[C@@]2(S(=O)(=O)c3ccc(F)cc3)c3ccc(C(F)(C(F)(F)F)C(F)(F)F)cc3CC[C@@H]12)C1(O)CCS(=O)(=O)CC1 | > 2 |  | > 2 |  | > 2 |  |  | 
5 | O=C(O)[C@H]1CC[C@H](C(=O)N2CC[C@@]3(S(=O)(=O)c4ccc(F)cc4)c4ccc(C(F)(C(F)(F)F)C(F)(F)F)cc4CC[C@@H]23)CC1 | > 2 |  | > 2 |  | > 2 |  |  | 

The next lines start with the values.

Row | half-life [1] [h] | Cmax [2] [µM] | half-life [3] [h] | AUC(0-t) at 24 h [4] [µM·h] | half-life [5] [h] | concentration at 24 h [6] [µM] | t1/2 ([3]; microsomes) [h] | t1/2 [5] [h] | Compound
6 | > 2 | 9 | > 2 | 134 | 1.22 | 2.2 |  |  | C[C@@H]1C[C@H](C(=O)N2CC[C@@]3(S(=O)(=O)c4ccc(F)cc4)c4ccc(C(F)(C(F)(F)F)C(F)(F)F)cc4CC[C@@H]23)CC[C@H]1C(=O)O
7 |  |  |  |  |  |  | 1.63 | 0.55 | C[C@H]1C[C@@H](C(=O)N2CC[C@@]3(S(=O)(=O)c4ccc(F)cc4)c4ccc(C(F)(C(F)(F)F)C(F)(F)F)cc4CC[C@@H]23)CCS1(=O)=O (stereo in doubt; 4)
8 | > 2 |  | > 2 |  |  |  |  | > 2 | C[C@H]1C[C@@H](C(=O)N2CC[C@@]3(S(=O)(=O)c4ccc(F)cc4)c4ccc(C(F)(C(F)(F)F)C(F)(F)F)cc4CC[C@@H]23)CCS1(=O)=O (stereo in doubt; 3)
